Key:
NCI-H929 tumor = experiment: Human plasma cell myeloma (NCI-H929) study; format: in vivo, SCID mice; details: FIG. 19
Source text: Human Plasma Cell Myeloma (NCI-H929) Study. Female SCID mice (Fox Chase SCID®, CB17/Icr-Prkce^scid, Charles River) were 8 weeks old at the beginning of the study. The animals were fed ad libitum water (reverse osmosis, 1 ppm Cl) and NIH 31 Modified and Irradiated Lab Diet® consisting of 18.0% crude protein, 5.0% crude fat, and 5.0% crude fiber. […]
The NCI-H929 tumor cells used for implantation were harvested during log phase growth and resuspended at a concentration of 5×10^7 cells/mL in 50% Matrigel (BD Biosciences). […] Tumor size, in mm^3, was calculated from: […]
Compound 1 was administered via oral gavage (p.o.) once daily for twenty-eight days (qd×28). Treatment efficacy was determined from the calculated tumor volumes on Day 12. MTV(n), the median tumor volume for the number of animals, n, evaluable on the day of analysis, was determined for each group. Percent tumor growth inhibition (% TGI) was defined as the difference between the MTV of the control group and the MTV of the drug-treated group, expressed as a percentage of the MTV of the control group: […]
Each animal was to be euthanized when its neoplasm reached the endpoint volume (2000 mm^3). For each animal whose tumor reached the endpoint volume, the time to endpoint (TTE) was calculated by the following equation: […]

[1] = Phase 1/2 study Part A: safety and tolerability
Source text: The study is designed as a Phase 1/2 trial consisting of two parts: dose escalation (Part A) and dose expansion (Part B).
Subsequently, a standard escalation dosing schedule with approximately 50% dose increments and 6 subjects per cohort will be initiated in order to establish the non-tolerated dose (NTD) and MTD. Smaller increments and additional subjects within a dose cohort may also be evaluated.
A dose will be considered to be non-tolerated if 2 evaluable subjects in a dose cohort experience dose-limiting toxicity (DLT). When a NTD is defined, dose escalation will be stopped. The MTD will be defined as the last dose tested below the NTD with 0 or 1 out of 6 evaluable subjects experiencing DLT during Cycle 1. An intermediate dose (i.e., one between the NTD and the last dose level before the NTD) or additional subjects within any dose cohort may be required to determine the MTD more precisely.
The safety variables for this study are adverse events, clinical laboratory variables, 12-lead ECGs (centrally reviewed), LVEF assessments, physical examinations and vital signs. In Part A, the decision to either evaluate a higher dose level or declare a MTD will be determined by the Safety Review Committee (SRC) each time all clinical and laboratory safety data for a given cohort is available for review. The SRC will also determine the dose, doses, or schedule appropriate for Part B. During Part B, the SRC will continue to review safety data regularly and make recommendations about the study continuation, as appropriate.
Part A: Accelerated Dose Escalation Results.

NCI-H647 = experiment: Cell viability assay for NSCLC lines; format: cell-based, human; details: NCI-H647, 3 days
Method: (§1) Cell Viability Assay for NSCLC Lines. Cell viability was assessed using the Cell Titer-Glo Luminescent Cell Viability from Promega. The assay is a homogenous method of determining the number of viable cells in culture based on quantitation of the adenosine triphosphate (ATP) present, an indicator of metabolically active cells. The homogenous assay procedure involves adding the single reagent (CellTiter-Glo Reagent) directly to cells cultured in serum-supplemented medium. Cells were plated into a 96-well flat bottom plate (Costar Catalog Number 33595) at densities that were previously optimized for each cell line. The cells were incubated overnight in 5% CO2 at 37° C. The following day, compound dilutions were prepared and all concentrations were assayed in triplicate. The cells were incubated with Compound 1 (0.03 μM, 0.1 μM, 0.3 μM, 1 μM, 3 μM, 10 μM and 30 μM for NSCLC cells) in 5% CO2 at 37° C. for 3 days. After a 3-day incubation period, 100 μL of CellTiter-Glo reagent was added to each well for 2 minutes with shaking and further incubated for 10 minutes (no shaking) at room temperature to stabilize the signal. The luminescence was measured on the VICTOR X2 multilabel plate reader. The percent growth inhibition was calculated using the DMSO control in the same plate (no compound) response as 100% cell growth. The average values from triplicates were plotted to obtain IC50 values using software XLfit from IDBS. The formula used for determining IC50 in XLfit was model number 205, which utilizes a 4 Parameter Logistic Model or Sigmoidal Dose-Response Model to calculate the IC50 values. All IC50 values are reported as an average from either two independent experiments or a single experiment.

NCI-H358 = experiment: Cell viability assay for NSCLC lines; format: cell-based, human; details: NCI-H358, 3 days
Method: as §1

NCI-H1693 = experiment: Cell viability assay for NSCLC lines; format: cell-based, human; details: NCI-H1693, 3 days
Method: as §1

NCI-H1838 = experiment: Cell viability assay for NSCLC lines; format: cell-based, human; details: NCI-H1838, 3 days
Method: as §1

NCI-H1703 = experiment: Cell viability assay for NSCLC lines; format: cell-based, human; details: NCI-H1703, 3 days
Method: as §1

NCI-H596 = experiment: Cell viability assay for NSCLC lines; format: cell-based, human; details: NCI-H596, 3 days
Method: as §1

NCI-H2291 = experiment: Cell viability assay for NSCLC lines; format: cell-based, human; details: NCI-H2291, 3 days
Method: as §1

NCI-H1437 = experiment: Cell viability assay for NSCLC lines; format: cell-based, human; details: NCI-H1437, 3 days
Method: as §1

Calu-6 = experiment: Cell viability assay for NSCLC lines; format: cell-based, human; details: Calu-6, 3 days
Method: as §1

NCI-H1395 = experiment: Cell viability assay for NSCLC lines; format: cell-based, human; details: NCI-H1395, 3 days
Method: as §1

CO[C@H]1CC[C@H](N2C(=O)CNc3ncc(-c4ccc(C(C)(C)O)nc4)nc32)CC1 [Compound 1, 7-(6-(2-hydroxypropan-2-yl)pyridin-3-yl)-1-((1r,4r)-4-methoxycyclohexyl)-3,4-dihydropyrazino-[2,3-b]pyrazin-2(1H)-one]
tumor growth delay (NCI-H929 tumor; 3 mg/kg and 10 mg/kg p.o. qd×28): Significant tumor growth delay
tumor growth inhibition (NCI-H929 tumor; 10 mg/kg p.o. qd×28): Significant tumor growth inhibition
DLT ([1]; 30 mg): Grade 3 hyperglycemia
DLT ([1]; 45 mg): grade 3 rash
DLT ([1]; 60 mg): Fatigue and mucositis
dose level of the first grade 2 related toxicity ([1]; 3rd dose level): 30 mg
most frequent related events ([1]; N=28, 7.5 to 60 mg): Fatigue, GI toxicity (including mucositis/stomatitis), hyperglycemia, rash and arthralgia
MTD ([1]; once daily, oral): 45 mg
NTD ([1]; once daily, oral): 60 mg
Hyperglycemia ([1]; onset often during cycle 1, dose related): reported frequently
interstitial pneumonitis ([1]; responded to steroid treatment): One case of grade 3 interstitial pneumonitis requiring hospitalization
tolerability ([1]; toxicities comparable to other drugs targeting this pathway): well tolerated
IC50 (NCI-H647): 1360 nM
IC50 (NCI-H358): 1420 nM
IC50 (NCI-H1693): 1580 nM
IC50 (NCI-H1838): > 30000 nM
IC50 (NCI-H1703): 920 nM
IC50 (NCI-H596): 2200 nM
IC50 (NCI-H2291): > 30000 nM
IC50 (NCI-H1437): 975 nM
IC50 (Calu-6): 4520 nM
IC50 (NCI-H1395): 600 nM
